The record followed here is patent publication US20230233533A1, “COMPOSITIONS, METHODS OF TREATING AND PREVENTING FUNGAL INFECTIONS, AND METHODS OF INHIBITING PRP8 INTEIN EXPRESSION” (Health Research, Inc., priority 2020, published 2023).

Series [1] has as its target T1, Prp8 intein (Cryptococcus gattii, UniProt E6R027). Nature of the series: Split GFP-Prp8i intein splicing assay. Particulars: split GFP-Prp8 intein splicing. It is filed as biochemical. The method, then: Cloning, expression and purfication—The split GFP-Prp8i was constructed using a mega-PCR mutagenesis approach. […] After digestion with Dpn I restriction enzyme, the PCR product was transformed into DH5α Escherichia coli. Clones were verified by plasmid DNA sequencing. The expression, refolding and purification of the GFP-Prp8i fusion protein were carried out as described previously.
[…] Then 100 μl 2×TCEP was added to a final concentration of 20 μM. The reactions were incubated at 25° C. overnight. […] Two readings were taken, one prior to addition of TCEP (I0) and one after incubation overnight with TCEP (If). Fluorescence/luminescence differences (ΔFluorescence or ΔLuminescence) were defined as If−I0 for each well. […] DMF control served as 100% splicing activity.
(§1) Split GFP-Prp8 and CJGFP-Prp8 intein splicing assays—Using black and clear bottom 96-well plates, the DPNB-treated, -refolded and -concentrated GFP-Prp8 or CfGFP-Prp8 fusion protein (0.5 μM) was incubated with compounds or Dimethylsulfoxide (DMSO) solvent control for 30 min at 25° C. in a 100 μl intein splicing buffer (20 mM Bis-tris propane, 0.5 M NaCl, 0.5 M arginine, 1 mM EDTA, and 0.05% CHAPS). Then 100 μl 2×TCEP was added to a final concentration of 20 μM. The reactions were incubated at 25° C. overnight. […] Two readings were taken, one prior to addition of TCEP (I0) and one after incubation overnight with TCEP (If). Fluorescence/luminescence differences (ΔFluorescence or ΔLuminescence) were defined as If−I0 for each well. […] DMSO control served as 100% splicing activity.

Series [2] deals with T1, Prp8 intein. Description: Split Renilla luciferase RLuc-Prp8 intein splicing assay. The format is biochemical. Particulars: split Renilla luciferase RLuc-Prp8 intein splicing. On the procedure: Split luciferase Prp8 intein splicing assay—The split RLuc-Prp8 fusion protein was carried out and monitored using a Veritas luminometer, as described previously.
(§2) Split luciferase RLuc-Prp8 and NnLuc-Prp8 intein splicing assays—The split RLuc-Prp8 intein splicing assay was carried out and monitored using a Veritas luminometer, as described previously. […] Microbes. Infect. […] For NnLuc-Prp8 intein splicing assay, the NnLuc-prp8 is diluted in assay buffer (50 mM Tris, 0.1% BSA, 1 mM EDTA, pH 7.4) and 50 ul is added to each well in 96 well black plates. Test molecules or the solvent was added and incubated for 30 to 60 min. A splicing inducer TCEP (50 ul, 100 μM) is added and incubated for 24 h. Luciferase substrate (Furimazine, 25 ul 1:10,000 diluted) is added and luminescence is read using a luminescence reader. IC50 is calculated using Graphpad prism.

The nature of the next series: in vitro. The format is cell-based, human. Particulars: human, CC50 A549. The method, then: Cytotoxicity—Cytotoxicity assays were carried out using human lung carcinoma cell line A549, as described (Chen et al., “Selective Inhibition of the West Nile Virus Methyltransferase by Nucleoside Analogs,” Antiviral Research 97(3):232-239 (2013), which is hereby incorporated by reference in its entirety). Briefly, the A549 cells (5×10^3) were incubated with/without compounds in a 96-well plate at 37° C. for 48 h. Cell viability was determined using the MTT assay (ATCC) as was described previously (Chen et al., “Selective Inhibition of the West Nile Virus Methyltransferase by Nucleoside Analogs,” Antiviral Research 97(3):232-239 (2013) and Brecher et al., “Identification and Characterization of Novel Broad-Spectrum Inhibitors of the Flavivirus Methyltransferase,” ACS Infectious Diseases 1(8):340-349 (2015), both of which are hereby incorporated by reference in their entirety). N=3.
Cytotoxicity—Cytotoxicity assays were carried out using human lung carcinoma cell line A549, as described. Chen et al., “Selective Inhibition of the West Nile Virus Methyltransferase by Nucleoside Analogs,” Antiviral Res. 97:232-9 (2013), which is hereby incorporated by reference in its entirety. Briefly, the A549 cells (5×10^3) were incubated with/without compounds in a 96-well plate at 37° C. for 48 h. Cell viability was determined using the MTT assay (ATCC) as was described previously (Chen et al., “Selective Inhibition of the West Nile Virus Methyltransferase by Nucleoside Analogs,” Antiviral Research 97(3):232-239 (2013) and Brecher et al., “Identification and Characterization of Novel Broad-Spectrum Inhibitors of the Flavivirus Methyltransferase,” ACS Infectious Diseases 1(8):340-349 (2015), both of which are hereby incorporated by reference in their entirety). N=3.

In another series the test system is C. neoformans H99 strain. Description: Fungal susceptibility test, broth microdilution MIC. The format is cell-based, Cryptococcus neoformans. Particulars: Cryptococcus neoformans, H99STRAIN; C. neoformans H99, microbroth dilution; read-out: MIC H99. The method, then: Fungal susceptibility test—The fungal susceptibility test was carried out with a compound concentration series as described. […] The broth microdilution method was used to determine the compound MIC values against C. neoformans.
Fungal susceptibility test—The fungal susceptibility test was carried out with a compound concentration series as described. […] Microbes. Infect. […] The broth microdilution method was used to determine the compound MIC values against C. neoformans.
For orientation: In broth dilution the organism is exposed to a series of concentrations in liquid medium.

The target in series [3] is T1, Prp8 intein. Nature of the series: Split Cys-free (Cf) GFP-Prp8 intein splicing assay. Particulars: read-out: IC50 CfGFP-Prp8 (converted). It is filed as biochemical. The method, then: (§3) The constructs for Cys-free (Cf) GFP-Prp8 and Cys-free nanoluciferase NnLuc-Prp8 were codon-optimized, synthesized, and cloned into the pET28a vector using the NcoI and XhoI sites by Gene Universal (Gene Universal, Newark Del.). […] The expression, refolding and purification of the CfGFP-Prp8 and NnLuc-Prp8 fusion proteins were carried out as described previously. […] Microbes. Infect.
as §1

The target in series [4] is T1, Prp8 intein. Description: Split nanoluciferase NnLuc-Prp8 intein splicing assay. The format is biochemical. The method, then: as §3, §2

pIC50: −log10 of the molar value. Values after ≈ are worked out from the molar mass of the structure shown. Bounds are passed on as bounds.

T1 sequence (E6R027 entry or part of it): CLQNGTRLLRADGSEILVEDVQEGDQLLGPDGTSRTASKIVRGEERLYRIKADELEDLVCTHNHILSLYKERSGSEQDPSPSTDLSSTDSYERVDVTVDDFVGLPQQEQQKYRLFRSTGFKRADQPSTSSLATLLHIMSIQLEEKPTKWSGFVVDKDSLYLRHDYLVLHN

`O=C(Nc1ccc(F)cc1F)c1ncsc1S(=O)(=O)c1ccc(Cl)cc1` [JMX0515, 5-((4-Chlorophenyl)sulfonyl)-N-(2,4-difluorophenyl)thiazole-4-carboxamide]: the values for the pIC50 against Prp8 intein [1] and on Prp8 intein [2] were below 4.30 and 4.42, respectively. In “in vitro”, it took 210 µM to reach half-maximal cytotoxicity (CC50 at 48 h). The MIC in the series on C. neoformans H99 strain is above 100 µM.
In the case of `O=C(Nc1ccccc1F)c1ncsc1S(=O)(=O)c1ccc(Cl)cc1` [JMX0516, 5-((4-Chlorophenyl)sulfonyl)-N-(2-fluorophenyl)thiazole-4-carboxamide], the pIC50 was 4.31 on Prp8 intein [1] and 4.88 at Prp8 intein [2]. Moreover, in the series “in vitro”, it took 144 µM to reach half-maximal cytotoxicity (CC50 at 48 h). In the series with C. neoformans H99 strain, the MIC was above 100 µM.
Consider `O=C(Nc1cccc(F)c1)c1ncsc1S(=O)(=O)c1ccc(Cl)cc1` [JMX0517, 5-((4-Chlorophenyl)sulfonyl)-N-(3-fluorophenyl)thiazole-4-carboxamide], for which the pIC50 on Prp8 intein [1] was below 4.30; against Prp8 intein [2] it was 4.55. Besides, it took 161 µM to reach half-maximal cytotoxicity in the series “in vitro” (CC50 at 48 h). Also, in the series on C. neoformans H99 strain, the MIC was above 100 µM.
Turning to `O=C(Nc1ccc(Cl)cc1)c1ncsc1S(=O)(=O)c1ccc(Cl)cc1` [JMX0518, N-(4-Chlorophenyl)-5-((4-chlorophenyl)sulfonyl)thiazole-4-carboxamide], the figures for the pIC50 against Prp8 intein [1] and on Prp8 intein [2] were 4.55 and 5.19, respectively. In the series “in vitro”, this molecule showed a CC50 at 48 h of 57.3 µM. The MIC with C. neoformans H99 strain was determined as 50 µM (≈ 20.7 µg/mL).
For `O=C(Nc1ccc(Cl)cc1Cl)c1ncsc1S(=O)(=O)c1ccc(Cl)cc1` [JMX0519, 5-((4-Chlorophenyl)sulfonyl)-N-(2,4-dichlorophenyl)thiazole-4-carboxamide], the pIC50 at Prp8 intein [1] is 4.30; against Prp8 intein [2], 4.93. Moreover, the cytotoxic concentration (CC50) at 48 h in “in vitro” amounted to 245 µM. In addition, in the series with C. neoformans H99 strain, the MIC was above 100 µM.
The matching figures for `O=C(Nc1ccc(F)c(F)c1)c1ncsc1S(=O)(=O)c1ccc(Cl)cc1` [JMX0520, 5-((4-Chlorophenyl)sulfonyl)-N-(3,4-difluorophenyl)thiazole-4-carboxamide]: below 4.30, 4.56, 81.6 µM and above 100 µM.
Regarding `O=C(Nc1ccc(C(F)(F)F)cc1)c1ncsc1S(=O)(=O)c1ccc(Cl)cc1` [JMX0521, 5-((4-Chlorophenyl)sulfonyl)-N-(4-(trifluoromethyl)phenyl)thiazole-4-carboxamide], the results for the pIC50 against Prp8 intein [1] and against Prp8 intein [2] were 4.30 and 4.53, respectively. In the series “in vitro”, the CC50 at 48 h worked out at 54.1 µM. Also, in the series on C. neoformans H99 strain, the MIC is above 100 µM.
Consider `O=C(Nc1ccc(F)cc1)c1nnsc1S(=O)(=O)c1ccc(Cl)cc1Cl` [JMX1059, 5-((2,4-Dichlorophenyl)sulfonyl)-N-(4-fluorophenyl)-1,2,3-thiadiazole-4-carboxamide], for which the IC50 on Prp8 intein [3] is 31.9 µM. Further, the pIC50 against Prp8 intein [4] was 4.68. In addition, in the series “in vitro”, the CC50 at 48 h turned out to be 68.1 µM. For the same molecule, the MIC in the series with C. neoformans H99 strain is 12.5 µM (≈ 5.4 µg/mL).
With `O=C(Nc1ccc(F)cc1)c1nnsc1S(=O)(=O)c1ccc(F)c(F)c1` [JMX1060, 5-((3,4-Difluorophenyl)sulfonyl)-N-(4-fluorophenyl)-1,2,3-thiadiazole-4-carboxamide], the IC50 on Prp8 intein [3] is 32.8 µM. The molecule further gave a pIC50 on Prp8 intein [4] of 4.63. For the same molecule, it took 61.1 µM to reach half-maximal cytotoxicity in “in vitro” (CC50 at 48 h). In the series with C. neoformans H99 strain, the MIC was found to be 50 µM (≈ 20 µg/mL).
The matching figures for `O=C(Nc1ccc(F)cc1)c1nnsc1S(=O)(=O)c1ccc(F)cc1` [JMX1061, N-(4-Fluorophenyl)-5-((4-fluorophenyl)sulfonyl)-1,2,3-thiadiazole-4-carboxamide]: 51.3 µM, 4.63, 71.7 µM and above 50 µM.
For `O=C(Nc1ccc(F)cc1)c1nnsc1S(=O)(=O)c1ccc(F)cc1F` [JMX1062, 5-((2,4-Difluorophenyl)sulfonyl)-N-(4-fluorophenyl)-1,2,3-thiadiazole-4-carboxamide] the same measures were 38.2 µM, 4.66, 65.4 µM and above 50 µM.
Regarding `O=C(Nc1ccc(F)cc1)c1nnsc1S(=O)(=O)c1cccc(C(F)(F)F)c1` [JMX1063, N-(4-Fluorophenyl)-5-((3-(trifluoromethyl)phenyl)sulfonyl)-1,2,3-thiadiazole-4-carboxamide], the IC50 on Prp8 intein [3] is 35 µM. In addition, the pIC50 at Prp8 intein [4] was 4.55. The molecule further showed a CC50 at 48 h in the series “in vitro” of 137 µM. For the same molecule, the MIC with C. neoformans H99 strain is 6.25 µM (≈ 2.7 µg/mL).
Consider `O=C(Nc1ccc(F)cc1)c1nnsc1[S+]([O-])c1cccc(C(F)(F)F)c1` (stereo not shown) [JMX1063-2, N-(4-Fluorophenyl)-5-((3-(trifluoromethyl)phenyl)sulfinyl)-1,2,3-thiadiazole-4-carboxamide], for which the IC50 on Prp8 intein [3] was 29.2 µM. Besides, the pIC50 on Prp8 intein [4] was 4.91. Further, in “in vitro”, the CC50 at 48 h is 93.8 µM. The MIC with C. neoformans H99 strain was determined as 6.25 µM (≈ 2.6 µg/mL).
With `O=C(Nc1ccc(F)cc1)c1nnsc1S(=O)(=O)c1ccc(Cl)c(Cl)c1` [JMX1064, 5-((3,4-Dichlorophenyl)sulfonyl)-N-(4-fluorophenyl)-1,2,3-thiadiazole-4-carboxamide], the IC50 at Prp8 intein [3] was 32.6 µM. For the same molecule, the pIC50 at Prp8 intein [4] was 4.59. Also, it took 78.4 µM to reach half-maximal cytotoxicity in “in vitro” (CC50 at 48 h). Besides, the minimal inhibitory concentration (MIC) with C. neoformans H99 strain was 1.56 µM (≈ 0.674 µg/mL).
For the molecule `O=C(Nc1ccc(F)cc1)c1nnsc1[S+]([O-])c1ccc(Cl)c(Cl)c1` (stereo not shown) [JMX1064-2, 5-((3,4-Dichlorophenyl)sulfinyl)-N-(4-fluorophenyl)-1,2,3-thiadiazole-4-carboxamide], at Prp8 intein [3], the IC50 was 19.8 µM. In addition, the pIC50 against Prp8 intein [4] was 4.46. The 50% cytotoxic concentration (CC50) at 48 h in “in vitro” turned out to be 122 µM. Further, in the series with C. neoformans H99 strain, the minimal inhibitory concentration (MIC) was above 50 µM.
Consider `O=C(Nc1cccc(F)c1)c1nnsc1S(=O)(=O)c1ccc(Cl)cc1` [JMX 871, 5-((4-Chlorophenyl)sulfonyl)-N-(3-fluorophenyl)-1,2,3-thiadiazole-4-carboxamide], for which the IC50 at Prp8 intein [3] is 35.4 µM. Moreover, on Prp8 intein [4], the pIC50 is 4.57. Also, in “in vitro”, the CC50 at 48 h came out at 140 µM. Moreover, the minimum inhibitory concentration (MIC) in the series with C. neoformans H99 strain stood at 3.12 µM (≈ 1.24 µg/mL).

For orientation: pIC50 means the IC50 on a negative log10 scale, so that one unit is a factor of ten. The term CC50 denotes the concentration at which the toxic effect on the cells reaches its halfway point. A higher CC50 goes with better tolerance by the cells. Usually MIC stands for the lowest concentration found to suppress growth. Broadly, the IC50 is the concentration needed to halve the response being measured.
